# “Also recorded” adds a separate entry of the source.
# Assays:
# [1] = system: Influenza A/Singapore/6/86(H1N1); experiment: Immunogenicity study of influenza virosome with flavonoids; humoral response by ELISA; format: in vivo; conditions: Balb/c mice, subcutaneous, 1 μg Influenza A virosome with 1 or 10 μg adjuvant, day 0 and 21, blood after 35 days; compared to other analysed flavonoids and virosomes without adjuvant
# PCSK9 antigenic peptide = experiment: Immunogenicity study of PCSK9 vaccine; humoral response by ELISA; format: in vivo, mice; conditions: beta-sitosterol used along with alum; statement on Table 6
# Experimental: The results are measured in ELISA units.
# PCSK9 vaccine was prepared as described in WIPO publication WO 2011/027257. Here, ‘VR_9.5’ as decribed in WO 2011/027257 has been used as PCSK9 peptide for the current experiment. Other disclosed PCSK9 peptide can also be used as PCSK9 construct. The prepared PCSK9 construct was conjugated with diphtheria toxoid as an immunogenic carrier. The said preparation was used as an antigen preparation for further study. The conjugated PCSK9 antigen was formulated with alum and beta-sitosterol. […] Blood samples were collected at day 63 for the analysis of humoral response by ELISA. Humoral response analysed by ELISA is shown in below table. […] Table 6 provided here below for the results obtained by ELISA.
compound,measurement,setting,value
CC[C@H](CC[C@@H](C)[C@H]1CC[C@H]2[C@@H]3CC=C4C[C@@H](O)CC[C@]4(C)[C@H]3CC[C@]12C)C(C)C [beta-sitosterol],"immune response (serum titers of total IgG, IgG2a and IgG1 antibody, FIG. 1-3)",[1],higher immune response
same,immune response against PCSK9 antigenic peptide,PCSK9 antigenic peptide,higher immune response; also recorded: synergistic effect
